Data from US9353087B2, “Inhibitors of Bruton's tyrosine kinase” (Biogen Idec MA Inc., priority 2012, dated 2016).
Like-named read-outs stand apart in the source and are kept apart here.

Key:
[1] = biological target: T1, BTK (Homo sapiens, UniProt Q06187); assay: In vitro BTK kinase assay: BTK-POLYGAT-LS assay; assay type: biochemical; conditions: ATP 10 uM, polyGAT 100 nM, BTK 0.25 nM, 30 minutes
T1 construct: purchased Upstate 14-552
Description: In vitro BTK kinase assay: BTK-POLYGAT-LS ASSAY. The purpose of the BTK in vitro assay was to determine compound potency against BTK through the measurement of IC50. Compound inhibition was measured after monitoring the amount of phosphorylation of a fluorescein-labeled polyGAT peptide (Invitrogen PV3611) in the presence of active BTK enzyme (Upstate 14-552), ATP, and inhibitor. The BTK kinase reaction was done in a black 96 well plate (costar 3694). For a typical assay, a 24 uL aliquot of an ATP/peptide master mix (final concentration; ATP 10 uM, polyGAT 100 nM) in kinase buffer (10 mM Tris-HCl pH 7.5, 10 mM MgCl2, 200 uM […], 5 mM DTT, 0.01% Triton X-100, and 0.2 mg/ml casein) was added to each well. Next, 1 uL of a 4-fold, 40× compound titration in 100% DMSO solvent was added, followed by adding 15 uL of BTK enzyme mix in 1× kinase buffer (with a final concentration of 0.25 nM). The assay was incubated for 30 minutes before being stopped with 28 uL of a 50 mM EDTA solution. Aliquots (5 uL) of the kinase reaction were transferred to a low volume white 384 well plate (Corning 3674), and 5 uL of a 2× detection buffer (Invitrogen PV3574, with 4 nM Tb—PY20 antibody, Invitrogen PV3552) was added. […] Time resolved fluorescence (TRF) on Molecular Devices M5 (332 nm excitation; 488 nm emission; 518 nm fluorescein emission) was measured.

[2] = biological target: T2, hERG (human ether-à-go-go-related gene) potassium channel (Homo sapiens, UniProt Q12809); assay: FastPatch/QPatch hERG inhibition assay in HEK293 cells; assay type: cell-based; conditions: HEK293 cells stably transfected with hERG cDNA, QPatch HT, IC50 estimated from hERG inhibition data
T2 construct: host or cells: HEK293
Text: The in vitro effects of provided compounds was investigated on the hERG (human ether-à-go-go-related gene) potassium channel current (a surrogate for IKr, the rapidly activating, delayed rectifier cardiac potassium current) expressed in human embryonic kidney (HEK293) cells stably transfected with hERG cDNA. Cells were placed in HEPES-buffered physiological saline solution in a glass-lined 96-well plate and loaded with appropriate amounts of test and control solutions for a duration of a 3-minute exposure at each concentration. Test compound was diluted in 0.3% DMSO. An automated parallel patch clamp system, QPatch HT (Sophion Bioscience A/S, Denmark), was used to evaluate at various concentrations (e.g., 10 μM). The IC50 values were estimated based on the hERG inhibition data. The study was performed at ChanTest (14656 Neo Parkway, Cleveland, Ohio). The QPatch screen is further described by Janzen and Bernasconi (eds.), High Throughput Screening, Methods and Protocols, Second Edition, vol. 565, chapter 10, pg. 209-223, 2009.

[3] = tested on: collagen induced arthritis (CIA) in female Lewis rats; assay: Rat collagen-induced arthritis model; assay type: in vivo; conditions: oral gavage BID, therapeutic administration, read-out: Ankle histiopathology ED50
Text: The collagen induced arthritis (CIA) model in female Lewis rats requires primary T and B cell immune responses to type II collagen (CII) immunization for the development of a severe inflammatory disease (see Goldschmidt T J, Holmdahl R. Cell Immunol. 154(1):240-8, 1994; Helfgott, S. M., et al; Clin. Immunol. Immunopathol. 31:403, 1984; Holmdahl R. et al., J Autoimmun. 7(6):739-52, 1994; and Stuart, J. M., et al., J. Exp. Med. 155:1, 1982). Clinical disease onsets after a secondary CII challenge and the disease progresses over the following eight days.
Generally, female Lewis rats were immunized with bovine collagen type II in incomplete Freund's adjuvant. […] Clinical severity of arthritis was assessed by caliper measurements of ankles taken every day beginning on […].
Detailed protocol: Female Lewis rats were immunized subcutaneously with bovine collagen type II (1:1 emulsion of 2 mg/ml bovine CII in 0.01 N acetic acid: Incomplete Freund's Adjuvant) at three sites of back skin. […] Clinical severity of CIA was assessed by caliper measurements of ankles taken every day beginning on Day 9. […] Baseline ankle caliper measurements for established disease animals was assessed on day 1 of therapeutic dosing and animals were randomly assigned to treatment groups after confirmation of clinically disease onset (0.2751-0.2755 in). […]

[4] = tested on: PLCγ2 phosphorylation in Ramos cells; assay: BCR pathway activation: inhibition of phosphorylation of PLCγ2 in Ramos cells (electrochemiluminescence immunoassay); assay type: cell-based; conditions: Homo sapiens, 2 hours compound, 10 μg/mL anti-IgM for 5 minutes, R^2=0.90
Description: Protocol: One day before treatment, Ramos cells were plated at a density of 3×10^5 cells per well in 200 μl, of complete medium in a 96-well tissue culture filter plates (Millipore, Billerica, Mass.). On the day of treatment, used medium was removed by filtration and the cells re-suspended in 200 μL serum free medium containing serial compound dilutions and DMSO to 0.1%, then incubated for 2 hours at 37° C. Cells were stimulated for 5 minutes with 10 μg/mL goat anti-human IgM at 37° C. […] After washing with TBST, MSD read buffer was added and the luminescence was measured in an MSD SECTOR Imager 6000. Maximum response was determined as the average luminescence in wells containing stimulated cells treated with anti-IgM and DMSO. Minimal response was determined as the average luminescence in wells containing unstimulated cells treated with DMSO alone. The maximal and minimal values were used to normalize luminescence in compound treatment wells. The normalized values were plotted against compound concentration on a log scale then analyzed using Prizm software (GraphPad Software, Inc.). […]

[5] = tested on: Human CD19+ B cells; assay: Inhibition of BCR (anti-IgM)-induced human B cell proliferation; assay type: cell-based; conditions: human CD19+ B cells from different donors, 10 μg/ml anti-IgM, 72 hours, CellTiter-Glo, read-out: IC50, anti-IgM-induced B cell cellular metabolism (proliferation)
Description: In this context, cellular metabolism directly correlates with cellular activation and proliferation, and can also reflect relative cell survival during proliferation. […] The results are shown graphically in FIG. 6.
Protocol: Human B cells were isolated from peripheral blood mononuclear cells or unpurified buffy coats using Ficoll-Hypaque gradients (Amersham) and negatively selected by magnetic cell sorting (Human B Cell Isolation Kit II, Miltenyi Biotec). Target cell purity was determined by flow cytometry by staining for markers of B cells, T cells and monocytes (CD19, CD3, CD14, respectively; BD Biosciences). Data was collected on a FACsCaliber flow cytometer and analyzed using FloJo software (BD Biosciences). […] Negatively selected human B cells were stimulated with 10 μg/mL anti-IgM F(ab′)2 (Jackson ImmunoResearch) in 96 well plates. […] B cells were stimulated for 72 hr at 37° C., 5% CO2. Proliferation was measured using the CellTiter-Glo reagent (Promega), as measured on a luminometer. Mean values were plotted against maximum proliferation and IC50 values were determine using GraphPad Prism v5 software.

[6] = tested on: TNFα expression by FcγR-activated primary human macrophages; assay: FcγR activation of primary human macrophages: TNFα expression; assay type: cell-based; conditions: Macrophage, human monocyte derived macrophages, plate-bound IgG
Text: (§1) FcγR activation of primary human macrophages. Autoantibody and immune-complex mediated activation through FcγR can be modeled by activation of macrophages with immobilized IgG. Primary human macrophages derived from GM-CSF treated monocytes up-regulate activation markers such as CD80, CD86, MHC antigens and the FcγRIII receptor. Human monocyte derived macrophages can be activated by plate-bound purified human IgG. This stimulation crosslinks the FcγRIII receptor and induces the secretion of pro-inflammatory cytokines such as TNFα, IL-6, IL 1β and MCP-1.
(§2) Generally, macrophages were cultured in plates previously incubated with purified IgG then washed. […] Cell culture supernatants were analyzed by ELISA for the expression of TNFα and IL-6.
(§3) Protocol: Human monocytes were isolated from buffy coats of healthy donors and negatively selected by magnetic cell sorting (Monocyte Isolation Kit II, Miltenyi Biotec). Purified monocytes were cultured in standard media supplemented with low-IgG FBS and 100 ng/mL GM-CSF for 5-7 days to induce macrophage differentiation. […] Supernatants were collected after 4 hrs and 18 hrs and analyzed for TNFα and IL-6, respectively.

[7] = tested on: IL-6 expression by FcγR-activated primary human macrophages; assay: FcγR activation of primary human macrophages: IL-6 expression; assay type: cell-based; conditions: Macrophage, human monocyte derived macrophages, plate-bound IgG
Text: as §1, §2, §3

T2 sequence (Q12809 whole entry): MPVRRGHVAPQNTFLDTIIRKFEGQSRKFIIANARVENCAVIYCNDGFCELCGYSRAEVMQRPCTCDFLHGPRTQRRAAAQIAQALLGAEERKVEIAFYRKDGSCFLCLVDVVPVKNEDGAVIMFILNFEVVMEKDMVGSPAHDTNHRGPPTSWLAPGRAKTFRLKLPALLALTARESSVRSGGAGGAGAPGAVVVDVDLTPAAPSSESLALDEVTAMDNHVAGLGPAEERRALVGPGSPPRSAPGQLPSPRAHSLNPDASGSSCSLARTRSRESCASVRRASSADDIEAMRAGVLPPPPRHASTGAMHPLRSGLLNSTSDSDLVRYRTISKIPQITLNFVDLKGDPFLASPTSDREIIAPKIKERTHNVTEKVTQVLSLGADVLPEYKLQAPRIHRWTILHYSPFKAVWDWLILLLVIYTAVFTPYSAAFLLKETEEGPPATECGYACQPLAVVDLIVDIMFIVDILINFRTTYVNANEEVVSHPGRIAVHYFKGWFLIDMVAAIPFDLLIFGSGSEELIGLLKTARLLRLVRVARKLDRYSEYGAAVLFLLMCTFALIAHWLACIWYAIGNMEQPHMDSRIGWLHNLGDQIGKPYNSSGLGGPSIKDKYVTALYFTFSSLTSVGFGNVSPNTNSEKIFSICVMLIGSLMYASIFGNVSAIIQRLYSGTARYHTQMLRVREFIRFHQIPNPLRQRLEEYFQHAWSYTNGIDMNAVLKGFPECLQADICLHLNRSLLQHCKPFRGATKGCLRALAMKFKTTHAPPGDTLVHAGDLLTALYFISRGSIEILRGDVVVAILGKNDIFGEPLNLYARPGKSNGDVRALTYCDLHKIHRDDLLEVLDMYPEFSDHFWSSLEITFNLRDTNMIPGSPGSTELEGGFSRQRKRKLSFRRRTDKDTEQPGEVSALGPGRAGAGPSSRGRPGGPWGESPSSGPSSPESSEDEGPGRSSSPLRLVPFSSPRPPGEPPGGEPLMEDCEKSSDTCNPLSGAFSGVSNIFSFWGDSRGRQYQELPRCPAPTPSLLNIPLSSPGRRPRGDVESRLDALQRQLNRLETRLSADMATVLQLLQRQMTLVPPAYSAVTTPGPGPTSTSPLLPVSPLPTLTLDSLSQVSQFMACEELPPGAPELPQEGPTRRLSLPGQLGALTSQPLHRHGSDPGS
T1 sequence (Q06187 whole entry): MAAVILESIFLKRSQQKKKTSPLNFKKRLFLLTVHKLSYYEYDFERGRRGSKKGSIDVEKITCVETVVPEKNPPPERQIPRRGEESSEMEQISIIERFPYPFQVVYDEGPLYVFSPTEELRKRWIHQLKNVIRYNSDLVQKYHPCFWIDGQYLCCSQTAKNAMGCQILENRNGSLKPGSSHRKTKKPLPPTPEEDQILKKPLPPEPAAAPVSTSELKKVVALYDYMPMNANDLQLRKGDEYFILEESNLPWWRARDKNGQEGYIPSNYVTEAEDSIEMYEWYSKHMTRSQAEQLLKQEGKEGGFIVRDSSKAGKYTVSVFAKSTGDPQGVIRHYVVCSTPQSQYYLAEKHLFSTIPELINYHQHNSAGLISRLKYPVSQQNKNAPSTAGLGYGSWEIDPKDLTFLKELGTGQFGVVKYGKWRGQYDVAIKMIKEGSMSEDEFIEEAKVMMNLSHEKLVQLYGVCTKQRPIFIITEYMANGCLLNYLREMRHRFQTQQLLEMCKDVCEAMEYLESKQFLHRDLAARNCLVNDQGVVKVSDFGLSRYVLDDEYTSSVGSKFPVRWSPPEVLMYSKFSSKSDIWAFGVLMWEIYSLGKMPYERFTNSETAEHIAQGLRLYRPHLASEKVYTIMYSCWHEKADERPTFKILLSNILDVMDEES

## Nc1ncnc(N2CC[C@H](O)[C@@H](N3CCC[C@@H](Nc4cc(Cl)cc(C(F)(F)F)c4)C3=O)C2)c1F [Compound I]
[1]
  IC50: 1.97 nM
[2]
  IC50: 9400 nM
[3]
  ED50: 4.08 mg/kg
[4]
  EC50: 150 nM
[5]
  IC50: 260 nM
[6]; ELISA (FIG. 7A), read-out: IC50 for inhibition of TNFα
  IC50: 1080 nM
[6]; supernatants after 4 hrs, ELISA, read-out: IC50, inhibition of TNFα expression
  IC50: 1100 nM
[7]; ELISA (FIG. 7B), read-out: IC50 for inhibition of IL-6
  IC50: 350 nM
[7]; supernatants after 18 hrs, ELISA, read-out: IC50, inhibition of IL-6 expression
  IC50: 350 nM
